# Measured values reported in US6960687B2, “Derivatives and pharmaceutical compositions of n-hydroxyalkyl tetramethylcyclopropane-carboxamide, having anti-epiletic, neurological, and CNS activity, and method for their preparation” (priority 2002, dated 2005).
# Experiments:
# mice [1] = assay: 6 Hz psychomotor seizure model; settings: for PI (6 Hz 44 mA): protective index at 44 mA stimulus; for ED50: Mus musculus, 0.25 h
# mice [2] = assay: subcutaneous metrazole test (sc Met); type: in vivo
# Description: This value is slightly lower (more efficacious) than that found for VPA in mice. The results are indicative of the compound 1 having an efficacy against absence seizures and ability to raise seizure threshold.
# (§1) Compound V of the above diagram (2-hydroxyethyl-tetramethylcyclopropane-carboxamide) was screened for its ability to protect against induced convulsions in MES and scMet test. […] At the sc Met (subcutaneous metrazole) test, 3 out of 4 mice were protected following ip administration of 50 mg/kg.
# mice [3] = assay: neurotoxicity, rotorod ataxia test; type: in vivo
# Method: (§2) Neurotoxicity of the claimed agents was assessed in mice (ip. administration) in the rotorod ataxia test. Compound 1 was neurotoxic in some of the mice tested at doses of above 146 mg/kg ip. The PI for compound 1 at the highest stimulus intensity (44 mA) in the 6 Hz test in mice was 1.1 compared to 0.91 for VPA.
# mice [4] = assay: maximal electroshock seizure test (MES); type: in vivo
# Method: The ED50 (mice ip) in the MES model is between 150 and 300 mg/kg in mice (Table 1). This value is slightly lower than that of VPA in mice. The results are indicative of the compound 1 having an efficacy against generalized seizures and complex partial seizures that evolve into generalized motor seizures.
# as §1
# mouse = settings: literature statement; cited from earlier work
# [5] = system: animal models of epilepsy; settings: literature statement; cited from earlier work
# [6] = neurotoxicity, rotorod ataxia test; type: in vivo, mice; settings: mouse, in vivo, ip
# Method: as §2
# mice [7] = settings: cited from earlier work
# [8] = ip, 15 min following administration
structure (smiles),measurement,setting,value
"CC1(C)C(C(=O)NCO)C1(C)C [Compound 1, N-hydroxymethyl-tetramethylcyclopropane-carboxamide]","times more active compared to VPA, 6 Hz 32 mA test","mice [1]; mice, 32 mA",1.38 times
same,"times more active compared to VPA, 6 Hz 44 mA test","mice [1]; mice, 44 mA",2.31 times
same,6 Hz 22 mA ED50,"mice [1]; mice, ip, 15 min, stimulation intensity 22 mA",75 mg/kg
same,6 Hz 32 mA ED50,"mice [1]; mice, ip, 15 min, stimulation intensity 32 mA",91 mg/kg
same,6 Hz 44 mA ED50,"mice [1]; mice, ip, 15 min, stimulation intensity 44 mA",134 mg/kg
same,PI (6 Hz 44 mA),"mice [1]; mice, ip",1.1
same,sc Met ED50,mice [2]; [8],120 mg/kg
same,Neurotoxicity TD50,"mice [3]; mice, ip, 15 min following administration",146 mg/kg
same,doses neurotoxic in some of the mice tested,"mice [3]; mice, ip, rotorod ataxia test",above 146 mg/kg
same,MES ED50,mice [4]; [8],150 to 300 mg/kg
"CC1(C)C(C(=O)NCCO)C1(C)C [Compound V, 2-hydroxyethyl-tetramethylcyclopropane-carboxamide]",mice protected at the sc Met test,mice [2]; ip administration of 50 mg/kg,3 out of 4
same,behavioral impairment (neurotoxicity),mice [3]; dose of 50 mg/kg ip,did not show any behavioral impairment
same,mice protected at the MES test,mice [4]; dose of 30 mg/kg ip,1 out of 4
CNC(=O)C1C(C)(C)C1(C)C [N-Methyl-tetramethylcyclopropane carboxamide],teratogenicity,mouse,not teratogenic
same,potency relative to VPA in animal models of epilepsy,[5],approximately 10 times
"CC1(C)C(C(N)=O)C1(C)C [Tetramethylcyclopropane carboxamide, Tetramethyl-cyclopropane-carboxamide]",teratogenicity,mouse,not teratogenic
"CCCC(CCC)C(=O)O [VPA, valproic acid, reference compound]",ED50,"mice [1]; ip, read-out: 6 Hz 22 mA ED50",42 mg/kg
same,ED50,"mice [1]; ip, read-out: 6 Hz 44 mA ED50",310 mg/kg
same,PI (6 Hz 44 mA),"mice [1]; mice, ip",0.91
same,TD50 at 15 min,[6],283 mg/kg
same,ED50,"mice [4]; Mus musculus, 0.25 h, ip, 15 min following administration",271 mg/kg
"CCC(C)C(CC)C(N)=O (stereo not drawn) [Valnoctamide (VCD), Valnoctamide]",teratogenicity,mouse,non-teratogenic
CC[C@@H](C(N)=O)N1CCCC1=O [levetiracetam],ED50 in 6 Hz model at 44 mA stimulus (existing antiepileptic drugs),mice [7],189 mg/kg
"CCCC(C(N)=O)C(C)C (stereo not drawn) [propyl-isoproylacetamide (PID), propyl-isoproylacetamide]",teratogenicity,mouse,non-teratogenic
